Test system: cholesterol biosynthesis
Assay: Test A: Inhibition of cholesterol biosynthesis from acetate in vitro (rat liver microsome and sup fraction)
Assay type: biochemical, male Wistar rat
Conditions: based on the activities of CS-514 being evaluated to be 1
Protocol: Test A: Inhibition of cholesterol biosynthesis from acetate in vitro
Enzyme solution was prepared from liver of male Wistar rat billialy cannulated and discharged bile for over 24 hours. Liver was cut out at mid-dark and microsome and supernatant fraction which was precipitable with 40-80% of saturation of ammonium sulfate (sup fraction) were prepared from liver homogenate according to the modified method of Knauss et al; Kuroda, M, et al, Biochim. Biophys. Acta, 489, 119 (1977). For assay of cholesterol biosynthesis, microsome (0.1 mg protein) and sup fraction (1.0 mg protein) were incubated for 2, hours at 37° C. in 200 μl of the reaction mixture containing ATP; 1 mM, Glutathione; 6 mM, Glucose-1-phosphate; 10 mM, NAD; 0.25 mM, NADP; 0.25 mM, CoA; 0.04 mM and 0.2 mM [2-^14 C]sodium acetate (0.2 μCi) with 4 μl of test compound solution dissolved in water or dimethyl sulfoxide. To stop reaction and saponify, 1 ml of 15% EtOH-KOH was added to the reactions and heated at 75° C. for 1 hour. […] Inhibitory activity of compounds was indicated with IC50.

| Compound | Relative activities by Test A |
| --- | --- |
| CCOC(=O)CC(O)CC(O)/C=C/c1c(CC)nc2ccccc2c1-c1ccc(F)cc1 (centres unmarked) [I-117] | 0.37 |
| CC(C)c1nc2c(Cl)cc(Cl)cc2c(-c2ccc(F)cc2)c1/C=C/C(O)CC(O)CC(=O)O (centres unmarked) [I-522] | 0.76 |

— patent US5872130A, “Quinoline type mevalonoactones” (Nissan Chemical Industries Ltd., priority 1988, dated 1999)
